According to patent US20190183114A1, “METHODS AND COMPOSITIONS FOR THE PRESERVATIONOF ORGANS” (INSERM (Institut National de la Sante et de la Recherche …, priority 2016, published 2019):
Entries after “also recorded” stand apart in the source; their conditions may differ.

What was measured:
Assay type in all cases: cell-based, human
HAEC = assay: XTT viability assay on HAEC subjected to 24 h of cold ischemia followed by 6 h of reperfusion; settings: for cell viability / survival after ischemia reperfusion (XTT): 24 h ischemia + 6 h reperfusion, treated during hypoxia from start (AEBSF 300 μM, Salubrinal 75 μM, STF083010 10 μM, 4μ8c 10 μM); for protection against cell death, treatment delayed by 12 h after start of cold ischemia: treatment after 12 h; for protection against cell death, treatment delayed by 12 h after start of cold ischemia / protection against cell death, treatment delayed by 6 h after start of cold ischemia: data not shown; for protection against cell death, treatment delayed by 6 h after start of cold ischemia: treatment only at 6 h
Experimental: Primary human aortic endothelial cells (HAEC) were obtained from Gibco (Lot No: #765093 and Lot No: #999999) and cultured on 1% gelatin (Sigma) coated flasks of 75 cm^2 in M200 medium supplemented with LSGS (Gibco), 8% fetal bovine serum (FBS), and 100 μg/mL penicillin and streptomycin in a humidified atmosphere at 21% O2, 5% CO2 and 37° C. The cells were split at a ratio of 1:4 every 5 days. Cells up to passage 5 were used in this study. All cell culture media, serum, and supplements were purchased from Invitrogen. STF083010 (10 μM) and 4μ8c (10 μM) were purchased from Axon MedChem. Salubrinal (75 μM) was from R&D. Tunicamycin ([…]), sodium 4-phenylbutyrate (1 mM), and 4-(2-Aminoethyl)benzenesulfonyl fluoride (AEBSF, 300 μM) were from Sigma. All chemicals were dissolved in DMSO (Sigma). IRE1α^−/− and IRE1α^+/+—which are IRE1α^−/− cells rescued by a retrovirus encoding a Flag-tagged human IRE1α—murine embryonic cells (MEC) were produced as previously described (Volmer R, Ploeg K van der, Ron D. Membrane lipid saturation activates endoplasmic reticulum unfolded protein response transducers through their transmembrane domains. Proc. Natl. Acad. Sci. 2013; 201217611). MEC were cultured in DMEM high-glucose media (Gibco) supplemented with 10% FBS, non-essential amino acids (Gibco), penicillin and streptomycin (Gibco), L-glutamine (Gibco), and puromycin (3 μg/mL).
(§1) HAEC were washed with PBS before being incubated in cold University of Wisconsin (UW) preservation solution in a chamber with hypothermic (4° C.) hypoxic atmosphere obtained by flushing the chamber atmosphere with Bactal 2 (0% O2, 95% N2 and 5% CO2) until the reach of 0% 02 in the chamber atmosphere. The oxygen level was controlled with the oximeter Oxy-4 micro from PreSens Precision Sensing GmbH with channels present in the outside atmosphere, the chamber atmosphere, and the cell supernatant. To perform the normothermic reoxygenation, cells were washed with PBS and then incubated with M200 supplemented with 2% FBS in a humidified atmosphere at 21% O2, 5% CO2 and 37° C. The durations of both hypoxia and reoxygenation are indicated in figure legends and in the manuscript.
Reverse transfection were performed using ON-TARGETplus SMART pool siRNAs targeting IRE1α (#L-004951-02-0005), XBP1 (#L-009552-00-0005), PERK (#L-004883-00-0005), ATF4 (#L-005125-00-0005), ATF6 (#L-009917-00-0005), or ON-TARGETplus Non-targeting Pool control siRNAs (#D-001810-10-05). They were purchased from Dharmacon and used at a final concentration of 20 nM. The transfection was performed using Lipofectamine RNAiMAX and Opti-MEM reduced serum medium according to the manufacturer's instructions (Invitrogen). After 6 hours of transfection, the cell medium was replaced with fresh cell culture medium containing 10% of FBS, LSGS but no antibiotics and no antimycotics. After 24 hours of transfection, cells were subjected to hypoxia-reoxygenation experiments. For cells in 96- and 24-wells plates, cell viability was analyzed according to protocol provided (XTT cell proliferation kit II, Roche Diagnostics) while cells in 6-wells were subjected to RT-qPCR analysis to detect knockdown efficiency.

ATF6 [1] = assay: RT-qPCR of ATF6 downstream targets HerpUD and GRP78 in tunicamycin-treated HAEC; settings: 6 h tunicamycin
Experimental: (§2) Primary human aortic endothelial cells (HAEC) were obtained from Gibco (Lot No: #765093 and Lot No: #999999) and cultured on 1% gelatin (Sigma) coated flasks of 75 cm^2 in M200 medium supplemented with LSGS (Gibco), 8% fetal bovine serum (FBS), and 100 μg/mL penicillin and streptomycin in a humidified atmosphere at 21% O2, 5% CO2 and 37° C. The cells were split at a ratio of 1:4 every 5 days. Cells up to passage 5 were used in this study. All cell culture media, serum, and supplements were purchased from Invitrogen. STF083010 (10 μM) and 4μ8c (10 μM) were purchased from Axon MedChem. […]
(§3) RNA was extracted from HAEC using the NucleoSpin RNA kit (Macherey-Nagel) containing a DNase treatment to remove potentially contaminating genomic DNA. […] A quantity of 1 μg of total RNA was reverse-transcribed with High Capacity cDNA Reverse Transcription kit (ABsystems). RT-qPCR was performed in triplicate with negative template controls, negative enzyme controls and the use of a calibrator to limit inter-run variations as recommended by the MIQE guidelines (Bustin S A, Benes V, Garson J A, Hellemans J, Huggett J, Kubista M, et al. The MIQE Guidelines: Minimum Information for Publication of Quantitative Real-Time PCR Experiments. Clin. Chem. 2009; 55:611-22). […]

CHOP [2] = assay: RT-qPCR of CHOP mRNA in tunicamycin-treated HAEC; settings: 6 h tunicamycin, hydrochloride
Experimental: as §2, §3

IRE1α's RNase activity [3] = assay: XBP1s and Erdj4 expression in tunicamycin-stimulated cells; settings: data not shown
Experimental: as §2, §3

CHOP [4] = assay: RT-qPCR of CHOP mRNA in HAEC subjected to 24 h of ischemia
Experimental: as §1, with “The durations of both hypoxia and reoxygenation are indicated in figure legends and in the manuscript.” left out
as §3

IRE1α's RNase activity [5] = assay: XBP1 mRNA splicing in cells subjected to 6 h ischemia; settings: data not shown
Experimental: as §1
We followed the method used in (Fougeray S, Bouvier N, Beaune P, Legendre C, Anglicheau D, Thervet E, et al. Metabolic stress promotes renal tubular inflammation by triggering the unfolded protein response. Cell Death Dis. 2011; 2:e143). The XBP1 cDNA encompassing the region of restriction site was amplified by PCR. […] The spliced isoform of XBP1 mRNA was resistant to Pst1 and was detected as a 448-bp amplification product whereas the unspliced isoform, containing Pst1 restriction site, was detected by the presence of two amplification products of 291-bp and 183-bp (FIG. 8A, right).

ATF6 [6] = assay: Western blot analysis of ATF6 at different times of ischemia; settings: data not shown
Experimental: as §1
(§4) HAEC were washed in cold PBS and resuspended in complete lysis buffer (Roche Diagnostics, #04719956001) before being sonicated at output power of 2 for 3 seconds (Branson Sonifier 450). The protein concentration of cell lysate supernatants was measured by BCA protein assay (Bio-Rad, #23225). […] The bound primary antibodies were detected with ChemiDoc™ MP imager (Bio-Rad) by the use of HRP-conjugated secondary antibody and the ECL detection system (Amersham Biosciences). […]

ATF4 = ATF4 production in EC subjected to 6 h of ischemia; settings: data not shown
Experimental: as §1, §4

## Cc1cc(=O)oc2c(C=O)c(O)ccc12 [4μ8c]
HAEC
  cell viability / survival after ischemia reperfusion (XTT): increased EC survival

## Cl.NCCc1ccc(S(=O)(=O)F)cc1 [AEBSF, 4-(2-Aminoethyl) benzenesulfonyl fluoride hydrochloride]
ATF6 [1]
  GRP78 mRNA expression: decreased
  HerpUD mRNA expression: decreased
CHOP [2]
  CHOP mRNA expression: decreases CHOP expression; also recorded: lower CHOP mRNA expression
HAEC; hydrochloride
  cell viability / survival after ischemia reperfusion (XTT): improves viability; also recorded: protected endothelial cells against cold ischemia-induced death; also recorded: correctly protected EC against death
HAEC
  protection against cell death, treatment delayed by 12 h after start of cold ischemia: protective effect was significantly lost
  protection against cell death, treatment delayed by 6 h after start of cold ischemia: trend towards decreased protection

## O=S(=O)(N=Cc1c(O)ccc2ccccc12)c1cccs1 [STF083010, N-[(2-Hydroxy-1-naphthalenyl)methylene]-2-thiophenesulfonamide]
IRE1α's RNase activity [3]
  Erdj4 expression: abrogated
  XBP1s expression: abrogated
CHOP [4]
  CHOP mRNA expression: decreased CHOP mRNA expression
CHOP [4]; listed as STF
  CHOP mRNA expression: significantly decreased CHOP expression to control levels
IRE1α's RNase activity [5]
  XBP1 mRNA splicing: inhibited splicing
ATF6 [6]; after 12 h of ischemia
  ATF6 expression (Western blot): trend towards increased ATF6 expression
ATF6 [6]; at 24 h of ischemia
  ATF6 expression (Western blot): no significant differences
HAEC
  cell viability / survival after ischemia reperfusion (XTT): improves viability; also recorded: increased EC survival
  protection against cell death, treatment delayed by 12 h after start of cold ischemia: did not alter the protection
  protection against cell death, treatment delayed by 6 h after start of cold ischemia: did not alter the protection
HAEC; listed as STF
  cell viability / survival after ischemia reperfusion (XTT): significantly increased EC survival

## O=C(C=Cc1ccccc1)NC(NC(=S)Nc1cccc2cccnc12)C(Cl)(Cl)Cl (stereo not shown) [Salubrinal, 3-phenyl-N-[2,2,2-trichloro-1-[[(8-quinolinylamino)thioxomethyl]amino]ethyl]-2-propenamide]
ATF4
  ATF4 production: effectively increased
HAEC
  cell viability / survival after ischemia reperfusion (XTT): improves viability; also recorded: significantly increased EC survival
  protection against cell death, treatment delayed by 6 h after start of cold ischemia: lost
HAEC; listed as Salubinal
  cell viability / survival after ischemia reperfusion (XTT): significantly protected cells against death
